Where two headings read alike, the source gives them in different places. Ends that are not written are not given here.
Key:
[1] = molecular target: T1, cyclin A/Cdk2 (Homo sapiens, UniProt P20248+P24941); test: In vitro cyclin A/Cdk2 kinase assay with purified proteins (GST-Rb-C substrate); assay type: biochemical
T1 construct: made in house; host or cells: insect cells (baculovirus)
Description: (§1) Cyclin A/Cdk2 kinase assays were performed as described previously (Ji et al., 2004). Both immuno-purified myc-cyclin A/Cdk2 on beads and GST-purified and eluted GST-cyclin A/Cdk2 (baculovirus vectors for GST-cyclin A and Cdk2 were provided by Brian Dynlacht) were used. The amounts of purified proteins were determined by comparing them with known amounts of standard proteins in Coomassie blue stained gels. Phosphorylation of GST-Rb-C was quantified with the ImageQuant software. The Ki of various proteins was determined by non-linear least squares analysis. To determine the amounts of various proteins in synchronized HeLa cells, extracts representing 7.5×10^4 HeLa cells were resolved with known amounts of purified proteins and compared in the same Western blots. Actual amounts of proteins in 7.5×10^4 HeLa cells were then determined (for example, the amounts of p27, Skp2, and cyclin A in 7.5×10^4 HeLa cells were determined to be about 0.1, 0.2, and 0.1 pmoles, respectively, at 14 hours post-replating; and about 0.01, 0.1, and 1.0 pmoles, respectively, at 19 hours post-replating).
For kinase reactions, insect cell-produced and purified GST-cyclin A/Cdk2 was used at a concentration of ˜3 nM, which was the lowest concentration that yielded readily detectible phosphorylation of GST-Rb-C here. Purified p27, GST-Skp2, and Skp2N were titrated into the kinase reaction over a wide range of concentrations (FIGS. 7A, B, and C). Phosphorylation of Rb-C was measured and plotted, and the Ki of these various proteins were determined by non-linear least squares analysis (FIG. 7F).
Since Skp2 competes with p27 for binding to cyclin A and Skp2's Ki is about 100-fold higher than p27's Ki, it can be reasoned that, at concentrations well below its Ki, Skp2 might be able to protect cyclin A/Cdk2 from inhibition by p27. To test this hypothesis, the same cyclin A/Cdk2 kinase assay was carried out to determine the inhibitory activity of p27 in the presence of 80 nM of Skp2N.
It was then determined whether the 4060 peptide could prevent Skp2N from protecting cyclin A/Cdk2 from inhibition by p27. […] When 80 nM of Skp2N was included, 5 nM of p27 lost its ability to inhibit the kinase activity (lane 3). […] These findings indicate that the Skp2-cyclin A interaction is also a potential target to inhibit cyclin A kinase activity in tumor cells, particularly those overexpressing Skp2.
To test this prediction, various peptides were added to an in vitro kinase reaction with purified cyclin A/Cdk2 (˜3 nM concentration). An E2F1-derived RxL peptide, LDL peptide, was used for comparison since it could inhibit cyclin A/Cdk2 kinase activity (Sun et al., 2006, and see next section). Since a TAT sequence was later added to these peptides for trans-membrane delivery (see next section), two versions of each peptide (without TAT and with TAT) was used in these kinase assays. These two versions of peptides yielded identical results and therefore only presented results with one version of the peptides.
The effects of the 4060 peptide on cyclin A/Cdk2 kinase activity in the presence of Skp2 and p27 were then determined.

[2] = molecular target: T2, interaction between cellular Skp2 and cyclin A/Cdk2 (Homo sapiens, UniProt P20248); test: Coimmunoprecipitation with cyclin A from peptide-treated U2OS cells; assay type: cell-based; settings: 50 μM peptide, twelve hours
T2 construct: endogenous in cells; host or cells: U2OS
Description: (§2) FIG. 12 is photographs of western blots and kinase assays and graphs showing the effects of trans-membrane delivery of the 4060 peptide. In Panel A, U2OS cells were treated with 50 μM of indicated peptide for twelve hours. Cell extracts were prepared for immunoprecipitation and Western blot analysis as indicated. […] In Panel C, the same extracts were used in IP-kinase assays as indicated. The extent of phosphorylation was quantified and plotted.
(§3) The loss of Skp2-cyclin A/Cdk2 interaction was not due to a reduction in levels of these proteins (FIG. 12B). Importantly, cellular p27 protein levels were not affected by the blocking peptide. […] Here, it is important to point out that although we used p27 as an inhibitor of cyclin A-associated kinase activity in purified kinase reactions with the 4060 blocking peptide shown in FIG. 11, the effects of blocking Skp2-cyclin A interaction on cyclin A-associated kinase activity in cells is unlikely to be mediated by p27 alone. There was no significant interaction between p27 and cyclin A in U2OS cells before and after treatment of TAT-4060. p27 family members p21 and p57, and the pocket proteins p107 and p130 (Adams et al., 1996) may bind and inhibit cyclin A-associated kinase activity through the RxL-HP interaction mechanism. […]

[3] = tested on: p27; test: Western blot of peptide-treated U2OS cell extracts; assay type: cell-based, human; settings: U2OS cells, 50 μM peptide, twelve hours
Description: as §2, §3

[4] = tested on: cyclin A-associated kinase activity; test: IP-kinase assay of anti-cyclin A and anti-Cdk2 immune complexes from peptide-treated U2OS cells; assay type: cell-based, human; settings: 50 μM peptide, twelve hours, compared with TAT-4060AAAA or TAT-Umt
Description: as §2, §3

[5] = tested on: U2OS cells
Description: It is currently unknown how peptide concentrations in the culture media translate into intro-cellular peptide concentrations.
Whether artificial manipulation of Skp2 protein levels in U2OS cells could change the IC50 of various peptides was also investigated.
(§4) Cell proliferation and survival assays. For the cell proliferation assay shown in FIG. 10D, 1×10^4 cells were plated in each well of 24 well plates and allowed to grow for a course of four days in the presence of 10% FBS. Cell numbers were counted every day from triplet wells. For cell survival assays in FIGS. 13, 14 and 15, 1×10^3 cells were plated in each well of 96 well plates and allowed to adhere overnight in the presence of 10% FBS. The cells were washed once with Opti-MEM (GIBCO) followed by incubation with different concentrations of peptides in Opti-MEM for 24 hours in triplicate. MTS assay was then performed following manufacturer's protocol (Promega).

[6] = tested on: human diploid fibroblasts WI-38; test: Cell survival MTS assay, WI-38; assay type: cell-based; settings: 120 μM, 24 hours
Description: In comparison, both TAT-Umt and TAT-4060 inhibited cyclin A/Cdk2 kinase activity in vitro at peptide concentrations of 100 μM (FIG. 11B). It is currently unknown how peptide concentrations in the culture media translate into intro-cellular peptide concentrations.
as §4

[7] = tested on: HeLa cells; test: Cell survival MTS assay, HeLa; assay type: cell-based, human; settings: high levels of Skp2
From the text: IC50 of the 4060 peptide positively correlates with Skp2 protein abundance in cancer cells. Skp2 is frequently overexpressed at various levels in various cancer cells. If TAT-4060 kills cancer cells by disrupting Skp2-cyclin A interaction, higher peptide concentrations should be needed to kill cancer cells with higher levels of Skp2. In comparison, since TAT-LDL is believed to kill cancer cells by blocking access of cyclin A to E2F1, there need not be a direct correlation between effective TAT-LDL concentrations and cellular Skp2 protein levels. To test this prediction, Skp2 protein levels and IC50 of both TAT-4060 and TAT-LDL was determined for the panel of four cancer cell lines.
as §4

[8] = molecular target: T3, Skp2-cyclin A interaction (Homo sapiens, UniProt P20248); test: GST pull-down, blocking of Skp2-cyclin A interaction by peptides; assay type: binding; settings: GST-Skp2N, myc-cyclin A/Cdk2 transfected 293T cell extracts
T3 construct: expressed in transfected cells; host or cells: 293T (cyclin A/Cdk2)
Description: (§5) GST pull down, p27 ubiquitylation assay, and cyclin A kinase assay. GST fusion proteins were purified on GSH-beads (Amersham), which were then incubated with transfected cell extracts for 1 hour in 4° C. with rocking. The beads were washed three times with lysis buffer (25 mM Hepes pH 7.6, 100 mM KCl, 0.1 mM EDTA, 10 mM MgCl2, 0.1% NP-40, 10% glycerol, 1 mM DTT) before analysis by SDS-PAGE and Western blotting.
(§6) Skp2-cyclin A interaction and p27-cyclin A interaction can be blocked by distinct peptides. An important aspect of the RxL-1-IP interaction is that it can be blocked by a short RxL peptide (Adams et al., 1996). If the Skp2-cyclin A/Cdk2 interaction and the p27-cyclin A/Cdk2 interaction are mediated by different sequences on both sides of the interaction, as shown above, it can be predicted that the RxL peptide should not block Skp2-cyclin A interaction. […] Peptide concentrations required for their respective blocking activities were similar for RxL and 4060 peptides.

[9] = molecular target: T4, p27-cyclin A interaction (Homo sapiens, UniProt P20248); test: GST pull-down, blocking of p27-cyclin A interaction; assay type: binding; settings: GST-p27, myc-cyclin A/Cdk2 transfected 293T cell extracts
T4 construct: expressed in transfected cells; host or cells: 293T (cyclin A/Cdk2)
Description: as §5, §6
Skp2 competes with p27/p21, but not E2F1, for binding to cyclin A. Whether the apparently distinct Skp2-cyclin A interaction and p27-cyclin A interaction are competitive against each other was next evaluated. […] Whether the competition between Skp2 and p27/p21 for cyclin A binding could be observed in vivo with endogenous proteins under physiological conditions was next determined. […]

[10] = molecular target: T1, cyclin A/Cdk2; test: IP-kinase assay with myc-cyclin A/Cdk2 transfected 293T cell extract; assay type: biochemical; settings: increasing amounts of peptide
Description: In panel A, an IP-kinase assay was performed with myc-cyclin A/Cdk2 transfected 293T cell extract in the presence of increasing amounts of RxL or 4060 peptides. Phosphorylation of GST-Skp2N is visible in this gel. […] As indicated, increasing amounts of the 4060 or 4060AAAA peptides were included in the reactions. Phosphorylation of Rb-C was quantified and plotted as shown.
as §1, with “To determine the amounts of various proteins in synchronized HeLa cells, extracts representing 7.5×10^4 HeLa cells were resolved with known amounts of purified proteins and compared in the same Western blots.” left out, “post-replating). […]” for “post-replating).”

Row | Sequence | Inhibitory effect on cyclin A/Cdk2 kinase activity ([1]; 1 μM and 10 μM peptide) | Inhibition of cyclin A/Cdk2 kinase activity ([1]; 100 μM peptide) | Dissociation of interaction between cellular Skp2 and cyclin A/Cdk2 [2] | Cellular p27 protein levels [3] | Kinase activity in anti-cyclin A and anti-Cdk2 immune complexes [4] | Concentration of peptide to achieve 40% killing ([5]; U2OS with artificial decrease in Skp2 protein levels (knockdown)) [µM] | Cell killing effectiveness ([5]; U2OS with artificial increase of Skp2 protein levels (overexpression)) | Cell killing effect of single peptide ([5]; U2OS, 1 or 2 μM, 24 hours) | Concentration of peptide to achieve 40% killing ([5]; U2OS, Skp2 levels not manipulated) [µM] | Cell killing effect ([5]; U2OS, twenty four hours after addition of peptides) | IC50 ([5]; read-out: IC50 of cell killing, U2OS, 24 hours, MTS) [µM] | WI-38 cells killed [6] | Peptide concentration required for cell killing [7] | Blocking of Skp2N-cyclin A interaction [8] | Blocking of p27-cyclin A interaction [9] | Effect of peptide itself on cyclin A/Cdk2 kinase activity towards Rb-C [10]
1 | YGRKKRRQRRRGKTSELLSGMGVSALEKEE [TAT-4060] | did not show inhibitory effect | significant inhibition | resulted in dissociation | not affected | clear reduction | 20 | nearly as ineffective as TAT-Umt | neither TAT-LDL nor TAT-4060 exhibited any cell killing effects | 40 | induced significant cell death | 35 | no effect | very high concentrations | – | – | –
2 | SACRNLFG (peptide RxL) [reference compound] | – | – | – | – | – | – | – | – | – | – | – | – | – | but not the Skp2N-cyclin A interaction | blocking the p27-cyclin A interaction | inhibited the kinase activity

From US8173604B2, “Inhibition of Skp2-cyclin a interaction” (Albert Einstein College of Medicine of Yeshiva University, priority 2006, dated 2012)
